Series [1] can be described thus: Test of common antioxidant additives incorporated into the syrup. Here is the method: Another test was conducted, wherein common antioxidant additives were incorporated into the syrup. Ideally, the antioxidant will be soluble in the syrup and is safe for use in foods and pharmaceutical preparations.
A short description of series [2]: Accelerated storage stability of syrups in sealed vials at 55° C., analysis by HPLC. In kind it is physicochemical. The following applies: severe storage conditions of the test (55° C.).
Method: This level can be readily determined by means of an accelerated storage stability test, in which packages of the final product are stored at elevated temperatures above the usual storage temperatures to which the product is expected to be exposed; the present inventors have used temperatures up to 55° C. for this purpose, although such temperatures tend to cause a minor discoloration (darkening) of the syrups, probably due to some carmelization of the contained sucrose. It is expected that most drug degradation reactions will be accelerated by the elevated temperature. At predetermined intervals, some of the packages are opened and analyzed to determine the amount of active ingredients and impurities present in the formulation.
Twenty five mL portions of the two syrups are placed into 50 mL flint glass vials, then sealed with rubber stoppers and aluminum caps. The sealed vials are stored at 55° C. until their removal and analysis by high performance liquid chromatography.
Sample A from the preceding example and similarly prepared syrups which also contain 0.1, 0.25, 0.5 or 0.75 mg/mL of disodium EDTA are packaged as in the prior example, and stored and tested similarly.

Read-outs that look alike come from different tables or passages of the source.

As for `O=C1O[C@H]([C@@H](O)CO)C(O)=C1O` [ascorbic acid], the “color change in the product” value in series [1] (additive at 0.1 and 1 mg/mL in the syrup) is “unacceptable strong color change”.
In the case of `O=C(O)CN(CCN(CC(=O)O)CC(=O)O)CC(=O)O` [EDTA, ethylenediaminetetraacetic acid], in series [2], the “inhibition of the degradation of loratadine” value is on record as “significant inhibition”.
As for `Cc1cc(C(C)(C)C)c(O)c(C(C)(C)C)c1` [butylated hydroxytoluene], the “solubility in the syrup” value in series [1] is recorded as “not soluble”.
Consider tocopherol, for which, in series [1] (oil-soluble antioxidants), the “solubility in the syrup” value is recorded as “not soluble”.
Take `O=S([O-])O.[Na+]` [sodium bisulfite]: in series [1] (additive in the syrup), the “odor imparted to the syrup” value is recorded as “pungent, disagreeable odor”.
